The text below walks through data of patent US10544103B2, “5-HT2 antagonists” (ANAMAR AB, priority 2015, dated 2020).

Usually inhibition stands for the relative decrease from the control value, in per cent.

SMILES strings stand for the structures.

The target in the assay is T1, 5-HT2B receptor (Homo sapiens, UniProt P41595).
T1 construct: host or cells: CHO-K1
Description: 5-HT2B receptor binding, 3H-LSD ligand displacement assay. Particulars: for inhibition at 0.1 µM: 0.1 uM compound; for inhibition at 1 µM: 1 uM compound; for inhibition at 0.001 µM: 0.001 uM compound; for inhibition at 0.01 µM: 0.01 uM compound. On the procedure: 5-HT2B receptor binding (performed at Eurofins Panlabs Taiwan, Ltd.) to human receptor protein expressed in CHO-K1 cells was determined in a ligand displacement assay using ^3H-lysergic acid diethylamide (LSD) as radioligand and ketanserine as a standard reference compound. Data is presented as % displacement of radioligand at indicated compound concentrations, see Table 1 and Table 2.

T1 sequence (P41595 whole entry): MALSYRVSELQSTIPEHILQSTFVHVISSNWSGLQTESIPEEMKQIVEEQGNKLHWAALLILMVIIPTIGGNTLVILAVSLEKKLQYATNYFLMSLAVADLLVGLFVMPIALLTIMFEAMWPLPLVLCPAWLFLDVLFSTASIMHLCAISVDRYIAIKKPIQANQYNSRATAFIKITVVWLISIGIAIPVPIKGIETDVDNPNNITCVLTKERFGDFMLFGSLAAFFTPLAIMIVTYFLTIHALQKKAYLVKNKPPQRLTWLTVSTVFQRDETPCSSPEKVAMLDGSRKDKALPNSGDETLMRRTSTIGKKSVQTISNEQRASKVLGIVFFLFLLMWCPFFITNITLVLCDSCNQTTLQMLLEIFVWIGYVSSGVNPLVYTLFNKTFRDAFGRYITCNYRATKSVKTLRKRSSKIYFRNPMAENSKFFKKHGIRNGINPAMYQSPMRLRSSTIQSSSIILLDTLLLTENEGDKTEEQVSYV

Turning to `N=C(N)N1CCC(c2coc3ccccc23)=N1` [Example 14, 3-(Benzofuran-3-yl)-4,5-dihydro-1H-pyrazole-1-carboximidamide], the inhibition at 0.1 µM is 40% and the inhibition at 1 µM stood at 88%.

For the molecule `N=C(N)N1CCC(c2cc(F)ccc2F)=N1` [Example 7, 3-(2,5-Difluorophenyl)-4,5-dihydro-1H-pyrazole-1-carboximidamide], the inhibition at 1 µM is 47%. Moreover, the inhibition at 10 µM (10 uM compound) was found to be 94%.

With `CC1CN(C(=N)NCc2ccc(Cl)c(Cl)c2)N=C1c1ccccc1O` (centres unmarked) [Example 58, N-(3,4-Dichlorobenzyl)-3-(2-hydroxyphenyl)-4-methyl-4,5-dihydro-1H-pyrazole-1-carboximidamide], the inhibition at 0.001 µM was 2% and the inhibition at 0.01 µM worked out at 52%.

On to `COc1c(Cl)cccc1C1=NN(C(=N)NC#N)CC1C` (centres unmarked) [Example 90, 3-(3-Chloro-2-methoxyphenyl)-N-cyano-4-methyl-4,5-dihydro-1H-pyrazole-1-carboximidamide], for which the inhibition at 0.001 µM is 3%, the inhibition at 0.01 µM is 1% and the inhibition at 0.1 µM is -2%.

As to `COc1ccc(NC(=N)N2CC(C)C(c3ccccc3O)=N2)cc1` (centres unmarked) [Example 105, 3-(2-Hydroxyphenyl)-N-(4-methoxyphenyl)-4-methyl-4,5-dihydro-1H-pyrazole-1-carboximidamide], the inhibition at 0.001 µM stood at 46%, the inhibition at 0.01 µM was 95% and the inhibition at 0.1 µM turned out to be 106%.

For `CC1CN(C(=N)NCc2ccccc2)N=C1c1cccc(Cl)c1O` (centres unmarked) [Example 75, N-Benzyl-3-(3-chloro-2-hydroxyphenyl)-4-methyl-4,5-dihydro-1H-pyrazole-1-carboximidamide], the inhibition at 0.001 µM was found to be 76% and the inhibition at 0.01 µM came out at 97%.

Turning to `COc1ccc(NC(=N)N2CC(C)C(c3ccccc3OCc3ccccc3)=N2)cc1` (centres unmarked) [Example 104, 3-(2-(Benzyloxy)phenyl)-N-(4-methoxyphenyl)-4-methyl-4,5-dihydro-1H-pyrazole-1-carboximidamide], the inhibition at 0.001 µM is -9%, the inhibition at 0.01 µM turned out to be 33% and the inhibition at 0.1 µM came out at 77%.

In the case of `CCCCCCCCCCCCNC(=N)N1CC(C)C(c2cccc(Cl)c2OC)=N1` (centres unmarked) [Example 82, 3-(3-Chloro-2-methoxyphenyl)-N-dodecyl-4-methyl-4,5-dihydro-1H-pyrazole-1-carboximidamide], the inhibition at 0.001 µM worked out at 0%, the inhibition at 0.01 µM was -4% and the inhibition at 0.1 µM was found to be 51%.

Consider `CCC1CC(c2ccccc2Cl)=NN1C(=N)N` (centres unmarked) [Example 27, 3-(2-Chlorophenyl)-5-ethyl-4,5-dihydro-1H-pyrazole-1-carboximidamide], for which the inhibition at 0.1 µM stood at 25% and the inhibition at 1 µM was 76%.

For the molecule `N=C(N)N1CCC(c2ccccc2C(F)(F)F)=N1` [Example 13, 3-(2-(Trifluoromethyl)phenyl)-4,5-dihydro-1H-pyrazole-1-carboximidamide], the inhibition at 0.1 µM stood at 34% and the inhibition at 1 µM was 82%.

In the case of `COc1c(Cl)cccc1C1=NN(C(=N)Nc2ccccc2)CC1C` (centres unmarked) [Example 88, 3-(3-Chloro-2-methoxyphenyl)-4-methyl-N-phenyl-4,5-dihydro-1H-pyrazole-1-carboximidamide], the inhibition at 0.001 µM stood at 53%, the inhibition at 0.01 µM stood at 92% and the inhibition at 0.1 µM was determined as 97%.

For `CC1CN(C(=N)N[C@@H](C)c2ccccc2)N=C1c1ccccc1O` (stereo partly drawn) [Example 64, 3-(2-Hydroxyphenyl)-4-methyl-N—((S)-1-phenylethyl)-4,5-dihydro-1H-pyrazole-1-carboximidamide], the inhibition at 0.001 µM came out at 23% and the inhibition at 0.01 µM came to 43%.

`N=C(N)N1CCC(c2ccccc2F)=N1` [Example 11, 3-(2-Fluorophenyl)-4,5-dihydro-1H-pyrazole-1-carboximidamide]: the inhibition at 0.1 µM is 10% and the inhibition at 1 µM came to 53%.

On to `CNC(=N)N1CCC(c2ccccc2O)=N1` [Example 20, 3-(2-Hydroxyphenyl)-N-methyl-4,5-dihydro-1H-pyrazole-1-carboximidamide], for which the inhibition at 0.1 µM was 41% and the inhibition at 1 µM was found to be 89%.

On to `C[C@H]1CN(C(=N)N)N=C1c1cccc(Cl)c1O` (single isomer, unassigned) [Example 72, (S)*-3-(3-chloro-2-hydroxyphenyl)-4-methyl-4,5-dihydro-1H-pyrazole-1-carboximidamide], for which the inhibition at 0.001 µM was -1%, the inhibition at 0.01 µM came out at 21% and the inhibition at 0.1 µM is 69%.

Turning to `CC1CC(c2c(F)cccc2F)=NN1C(=N)N` (centres unmarked) [Example 26, 3-(2,6-Difluorophenyl)-5-methyl-4,5-dihydro-1H-pyrazole-1-carboximidamide], the inhibition at 0.1 µM came to 7% and the inhibition at 1 µM came to 55%.

For `N=C(N)N1CCC(c2ccccc2N)=N1` [Example 31, 3-(2-Aminophenyl)-4,5-dihydro-1H-pyrazole-1-carboximidamide], the inhibition at 0.1 µM came out at 21% and the inhibition at 1 µM was 69%.

As for `C[C@H]1CN(C(=N)NCc2ccccc2)N=C1c1cccc(Cl)c1O` (single isomer, unassigned) [Example 77, (S)*—N-Benzyl-3-(3-chloro-2-hydroxyphenyl)-4-methyl-4,5-dihydro-1H-pyrazole-1-carboximidamide], the inhibition at 0.001 µM came out at 2%, the inhibition at 0.01 µM stood at 28% and the inhibition at 0.1 µM came to 88%.

Regarding `COc1ccccc1C1=NN(C(=N)Nc2ccccc2)CC1C` (centres unmarked) [Example 96, 3-(2-Methoxyphenyl)-4-methyl-N-phenyl-4,5-dihydro-1H-pyrazole-1-carboximidamide], the inhibition at 0.001 µM amounted to 19%, the inhibition at 0.01 µM was found to be 43% and the inhibition at 0.1 µM was determined as 93%.

As for `CC1CN(C(=N)N)N=C1c1ccnc2ccccc12` (centres unmarked) [Example 71, 4-Methyl-3-(quinolin-4-yl)-4,5-dihydro-1H-pyrazole-1-carboximidamide], the inhibition at 0.01 µM was 11%, the inhibition at 0.1 µM stood at 20% and the inhibition at 1 µM was determined as 43%.

For `CC1CN(C(=N)NCc2ccc(Cl)cc2Cl)N=C1c1ccccc1O` (centres unmarked) [Example 57, N-(2,4-Dichlorobenzyl)-3-(2-hydroxyphenyl)-4-methyl-4,5-dihydro-1H-pyrazole-1-carboximidamide], the inhibition at 0.001 µM came to 21% and the inhibition at 0.01 µM was 78%.

Consider `CC1CC(c2cccc3ccccc23)=NN1C(=N)N` (centres unmarked) [Example 23, 5-methyl-3-(naphthalen-1-yl)-4,5-dihydro-1H-pyrazole-1-carboximidamide], for which the inhibition at 0.1 µM worked out at 68% and the inhibition at 1 µM stood at 97%.

With `COc1c(Cl)cccc1C1=NN(C(=N)NCC(F)(F)C(F)(F)C(F)(F)F)CC1C` (centres unmarked) [Example 106, 3-(3-Chloro-2-methoxyphenyl)-N-(2,2,3,3,4,4,4-heptafluorobutyl)-4-methyl-4,5-dihydro-1H-pyrazole-1-carboximidamide], the inhibition at 0.001 µM was 16%, the inhibition at 0.01 µM came out at 57% and the inhibition at 0.1 µM was found to be 93%.
